We go through 6 molecules from ChEMBL document CHEMBL1130779, “Synthesis and pharmacological activity of the stereoisomers of GP-88, a propafenone-type modulator of multidrug resistance” (Bioorg Med Chem Lett, 1998).

The test concerns CCRF-CEM/VCR-1000. Kind of test: MDR-modulating activity as a measure to inhibit P-glycoprotein (PGP) mediated transmembrane transport in human T-lymphoblast cell line CEM vcr 1000 using the daunomycin efflux assay. It is filed as functional, cell-based.

`C[C@H](O)c1ccccc1OC[C@@H](C)O` registered an EC50 of 580 nM.

`CCCNC[C@H](O)COc1ccccc1C(=O)CCc1ccccc1` registered an EC50 of 370 nM.

Turning to `C[C@H](O)COc1ccccc1[C@@H](C)O`, the EC50 came to 1400 nM.

In turn, `CCCNC[C@@H](O)COc1ccccc1C(=O)CCc1ccccc1` came in with an EC50 of 260 nM.

Consider `C[C@@H](O)COc1ccccc1[C@@H](C)O`, for which the 50% effective concentration (EC50) stood at 780 nM.

`C[C@H](O)COc1ccccc1[C@H](C)O`: the EC50 is 1560 nM.

A word on the EC50: it is the concentration at which the effect is half-maximal. Low readings indicate higher potency in that assay, high ones lower potency in that assay.
